The values that follow come from the supplement of paper PMC10307832.

Holding throughout (experiment): relative viability (nuclei count vs DMSO), 5 days (fraction); higher = more cells survive
Compound in the assay “AZD1208 + Palbociclib”: N[C@@H]1CCCN(c2c(/C=C3\SC(=O)NC3=O)cccc2-c2ccccc2)C1 [AZD1208] + CC(=O)c1c(C)c2cnc(Nc3ccc(N4CCNCC4)cn3)nc2n(C2CCCC2)c1=O [Palbociclib] (partner 0.5 µM)
In short, it runs like this:
(§1)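 Relative viability divides the nuclei count in treated wells by that in vehicle wells. Lung cancer cell lines were seeded in 1536-well plates, dosed by pin tool the next day, and fixed and stained after 5 days in one step with final 0.05% Triton X-100, 1% formaldehyde and 1 ug/ml Hoechst. Dosing was a single drug or a fixed anchor-drug dose plus five library-drug doses (not always all listed) in √10 steps, and values are medians of duplicate plates imaged at 4×.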

Compound in the assay “XMD14-99 + Palbociclib”: CN1CCN(CC1)C2=CC(=C(C=C2)NC3=NC(=C(S3)C(=O)C4=C(C=CC=C4Cl)Cl)N)OC [XMD14-99] + CC(=O)c1c(C)c2cnc(Nc3ccc(N4CCNCC4)cn3)nc2n(C2CCCC2)c1=O [Palbociclib] (partner 0.5 µM)
The method, boiled down: as §1

Compound in the assay “AZD1208 + Pictilisib”: N[C@@H]1CCCN(c2c(/C=C3\SC(=O)NC3=O)cccc2-c2ccccc2)C1 [AZD1208] + CS(=O)(=O)N1CCN(Cc2cc3nc(-c4cccc5[nH]ncc45)nc(N4CCOCC4)c3s2)CC1 [Pictilisib] (partner 1 µM)
In short, it runs like this:
as §1

Compound in the assay “AZD1208 + Trametinib”: N[C@@H]1CCCN(c2c(/C=C3\SC(=O)NC3=O)cccc2-c2ccccc2)C1 [AZD1208] + CC(=O)Nc1cccc(-n2c(=O)n(C3CC3)c(=O)c3c(Nc4ccc(I)cc4F)n(C)c(=O)c(C)c32)c1 [Trametinib] (partner 0.02 µM)
The method, boiled down: as §1

For 201T, the relative viability was 0.371 in the assay with AZD1208 + Palbociclib (first compound 0.08 µM); 0.366 with AZD1208 + Palbociclib (first compound 0.253 µM); 0.351 in the assay with AZD1208 + Palbociclib (first compound 0.8 µM); 0.35 with AZD1208 + Palbociclib (first compound 2.53 µM); 0.34 with AZD1208 + Palbociclib (first compound 8 µM); 0.351 with XMD14-99 + Palbociclib (first compound 0.08 µM). Further, the relative viability with XMD14-99 + Palbociclib (first compound 0.8 µM) is 0.368; in the assay with XMD14-99 + Palbociclib (first compound 2.53 µM), 0.371; with XMD14-99 + Palbociclib (first compound 8 µM), 0.333; in the assay with AZD1208 + Pictilisib (first compound 0.08 µM), 0.644; in the assay with AZD1208 + Pictilisib (first compound 0.253 µM) it was 0.641; in the assay with AZD1208 + Pictilisib (first compound 0.8 µM), 0.649. Further, the relative viability is 0.62 with AZD1208 + Pictilisib (first compound 2.53 µM); 0.686 in the assay with AZD1208 + Pictilisib (first compound 8 µM); 0.749 in the assay with AZD1208 + Trametinib (first compound 0.08 µM); 0.716 in the assay with AZD1208 + Trametinib (first compound 0.253 µM); 0.721 with AZD1208 + Trametinib (first compound 0.8 µM); 0.725 with AZD1208 + Trametinib (first compound 2.53 µM). Further, the relative viability in the assay with AZD1208 + Trametinib (first compound 8 µM) stood at 0.732.

Turning to A549, the relative viability with AZD1208 + Pictilisib (first compound 0.08 µM) came to 0.409; with AZD1208 + Pictilisib (first compound 0.253 µM) it was 0.423; with AZD1208 + Pictilisib (first compound 0.8 µM) it was 0.303; with AZD1208 + Pictilisib (first compound 2.53 µM) it was 0.283; with AZD1208 + Pictilisib (first compound 8 µM), 0.358.

For the cell line A-427, the relative viability with AZD1208 + Palbociclib (first compound 0.08 µM) is 0.546; in the assay with AZD1208 + Palbociclib (first compound 0.253 µM), 0.548; with AZD1208 + Palbociclib (first compound 0.8 µM), 0.495; with AZD1208 + Palbociclib (first compound 2.53 µM), 0.551; in the assay with AZD1208 + Palbociclib (first compound 8 µM), 0.527; in the assay with XMD14-99 + Palbociclib (first compound 0.08 µM), 0.515. For the same cell line, the relative viability was 0.554 in the assay with XMD14-99 + Palbociclib (first compound 0.8 µM); 0.488 in the assay with XMD14-99 + Palbociclib (first compound 2.53 µM); 0.452 in the assay with XMD14-99 + Palbociclib (first compound 8 µM); 0.673 with AZD1208 + Pictilisib (first compound 0.08 µM); 0.664 with AZD1208 + Pictilisib (first compound 0.253 µM); 0.597 in the assay with AZD1208 + Pictilisib (first compound 0.8 µM). Also, the relative viability with AZD1208 + Pictilisib (first compound 2.53 µM) amounted to 0.74; with AZD1208 + Pictilisib (first compound 8 µM), 0.533; with AZD1208 + Trametinib (first compound 0.08 µM), 0.622; with AZD1208 + Trametinib (first compound 0.253 µM) it was 0.71; with AZD1208 + Trametinib (first compound 0.8 µM) it was 0.6; in the assay with AZD1208 + Trametinib (first compound 2.53 µM), 0.619. Further, the relative viability with AZD1208 + Trametinib (first compound 8 µM) was found to be 0.537.

For ABC-1, the relative viability with AZD1208 + Palbociclib (first compound 0.08 µM) was found to be 0.815; with AZD1208 + Palbociclib (first compound 0.253 µM), 0.631; with AZD1208 + Palbociclib (first compound 0.8 µM) it was 0.474; with AZD1208 + Palbociclib (first compound 2.53 µM) it was 0.563; with AZD1208 + Palbociclib (first compound 8 µM), 0.444; with XMD14-99 + Palbociclib (first compound 0.08 µM) it was 0.783. The relative viability with XMD14-99 + Palbociclib (first compound 0.8 µM) came to 0.722; with XMD14-99 + Palbociclib (first compound 2.53 µM), 0.651; with XMD14-99 + Palbociclib (first compound 8 µM) it was 0.634; with AZD1208 + Pictilisib (first compound 0.08 µM), 0.526; with AZD1208 + Pictilisib (first compound 0.253 µM), 0.665; in the assay with AZD1208 + Pictilisib (first compound 0.8 µM), 0.565. For the same cell line, the relative viability with AZD1208 + Pictilisib (first compound 2.53 µM) came out at 0.623; with AZD1208 + Pictilisib (first compound 8 µM), 0.627.

In the case of BEN, the relative viability in the assay with AZD1208 + Palbociclib (first compound 0.08 µM) worked out at 0.565; with AZD1208 + Palbociclib (first compound 0.253 µM) it was 0.446; in the assay with AZD1208 + Palbociclib (first compound 0.8 µM) it was 0.472; in the assay with AZD1208 + Palbociclib (first compound 2.53 µM), 0.505; with AZD1208 + Palbociclib (first compound 8 µM), 0.431; with XMD14-99 + Palbociclib (first compound 0.08 µM), 0.489. For the same cell line, the relative viability was 0.468 in the assay with XMD14-99 + Palbociclib (first compound 0.8 µM); 0.478 in the assay with XMD14-99 + Palbociclib (first compound 2.53 µM); 0.476 with XMD14-99 + Palbociclib (first compound 8 µM); 0.525 in the assay with AZD1208 + Pictilisib (first compound 0.08 µM); 0.447 with AZD1208 + Pictilisib (first compound 0.253 µM); 0.414 in the assay with AZD1208 + Pictilisib (first compound 0.8 µM). Moreover, the relative viability was 0.387 in the assay with AZD1208 + Pictilisib (first compound 2.53 µM); 0.373 with AZD1208 + Pictilisib (first compound 8 µM); 0.843 in the assay with AZD1208 + Trametinib (first compound 0.08 µM); 0.754 with AZD1208 + Trametinib (first compound 0.253 µM); 0.636 with AZD1208 + Trametinib (first compound 0.8 µM); 0.768 with AZD1208 + Trametinib (first compound 2.53 µM). The relative viability in the assay with AZD1208 + Trametinib (first compound 8 µM) came to 0.576.

Take CAL-12T: the relative viability was 0.501 with AZD1208 + Palbociclib (first compound 0.08 µM); 0.483 with AZD1208 + Palbociclib (first compound 0.253 µM); 0.569 with AZD1208 + Palbociclib (first compound 0.8 µM); 0.434 with AZD1208 + Palbociclib (first compound 2.53 µM); 0.448 with AZD1208 + Palbociclib (first compound 8 µM); 0.532 with XMD14-99 + Palbociclib (first compound 0.08 µM). In addition, the relative viability amounted to 0.43 with XMD14-99 + Palbociclib (first compound 0.8 µM); 0.485 in the assay with XMD14-99 + Palbociclib (first compound 2.53 µM); 0.413 in the assay with XMD14-99 + Palbociclib (first compound 8 µM); 0.507 with AZD1208 + Pictilisib (first compound 0.08 µM); 0.523 with AZD1208 + Pictilisib (first compound 0.253 µM); 0.389 with AZD1208 + Pictilisib (first compound 0.8 µM). The relative viability with AZD1208 + Pictilisib (first compound 2.53 µM) is 0.355; with AZD1208 + Pictilisib (first compound 8 µM) it was 0.511; with AZD1208 + Trametinib (first compound 0.08 µM), 0.377; with AZD1208 + Trametinib (first compound 0.253 µM) it was 0.331; with AZD1208 + Trametinib (first compound 0.8 µM), 0.339; with AZD1208 + Trametinib (first compound 2.53 µM), 0.332. Moreover, in the assay with AZD1208 + Trametinib (first compound 8 µM), the relative viability was determined as 0.251.

Regarding COR-L23, the relative viability with AZD1208 + Palbociclib (first compound 0.08 µM) was 0.288; with AZD1208 + Palbociclib (first compound 0.253 µM), 0.312; with AZD1208 + Palbociclib (first compound 0.8 µM), 0.256; in the assay with AZD1208 + Palbociclib (first compound 2.53 µM) it was 0.295; in the assay with AZD1208 + Palbociclib (first compound 8 µM) it was 0.244; with XMD14-99 + Palbociclib (first compound 0.08 µM), 0.266. The relative viability was found to be 0.295 with XMD14-99 + Palbociclib (first compound 0.8 µM); 0.299 with XMD14-99 + Palbociclib (first compound 2.53 µM); 0.18 with XMD14-99 + Palbociclib (first compound 8 µM); 0.738 in the assay with AZD1208 + Pictilisib (first compound 0.08 µM); 0.87 with AZD1208 + Pictilisib (first compound 0.253 µM); 0.725 with AZD1208 + Pictilisib (first compound 0.8 µM). The relative viability with AZD1208 + Pictilisib (first compound 2.53 µM) was 0.693; in the assay with AZD1208 + Pictilisib (first compound 8 µM), 0.75; in the assay with AZD1208 + Trametinib (first compound 0.08 µM), 0.511; in the assay with AZD1208 + Trametinib (first compound 0.253 µM), 0.581; in the assay with AZD1208 + Trametinib (first compound 0.8 µM), 0.525; in the assay with AZD1208 + Trametinib (first compound 2.53 µM), 0.57. For the same cell line, in the assay with AZD1208 + Trametinib (first compound 8 µM), the relative viability was found to be 0.301.

Regarding COR-L 105, the relative viability with AZD1208 + Palbociclib (first compound 0.08 µM) came out at 0.37; in the assay with AZD1208 + Palbociclib (first compound 0.253 µM) it was 0.344; with AZD1208 + Palbociclib (first compound 0.8 µM), 0.379; with AZD1208 + Palbociclib (first compound 2.53 µM) it was 0.38; in the assay with AZD1208 + Palbociclib (first compound 8 µM), 0.43; with XMD14-99 + Palbociclib (first compound 0.08 µM), 0.402. Moreover, the relative viability came to 0.418 with XMD14-99 + Palbociclib (first compound 0.8 µM); 0.433 with XMD14-99 + Palbociclib (first compound 2.53 µM); 0.344 in the assay with XMD14-99 + Palbociclib (first compound 8 µM); 0.369 with AZD1208 + Pictilisib (first compound 0.08 µM); 0.3 in the assay with AZD1208 + Pictilisib (first compound 0.253 µM); 0.353 in the assay with AZD1208 + Pictilisib (first compound 0.8 µM). Moreover, the relative viability with AZD1208 + Pictilisib (first compound 2.53 µM) came to 0.366; with AZD1208 + Pictilisib (first compound 8 µM), 0.451; with AZD1208 + Trametinib (first compound 0.08 µM) it was 0.435; with AZD1208 + Trametinib (first compound 0.253 µM) it was 0.366; with AZD1208 + Trametinib (first compound 0.8 µM) it was 0.408; with AZD1208 + Trametinib (first compound 2.53 µM) it was 0.625. Further, the relative viability with AZD1208 + Trametinib (first compound 8 µM) came out at 0.378.
